B1: CX3CL1: ligand of CX3CR1-LIDAR (protein)
chain: QHHGVTKCNITCSKMTSKIPVALLIHYQQNQASCGKRAIILETRQHRLFCADPKEQWVKDAMQHLDRQAAALTRNG

Key:
[1] = test system: CCR6-based LIDAR outputting iCASP9 (cLSM01-C5 cells); assay: LIDAR-induced cell apoptosis with iCASP9 output in stable cell line cLSM01-C5; assay type: cell-based; conditions: only when both CCL20 and AP1903 are present; flow cytometry and microscopy; FIG. 9F
Method: In terms of generalizing functional outputs, LIDAR was used to output iCASP9 as a ligand-dependent cell death controller (13) (FIG. 9E), as iCASP9 induces apoptosis in response to the dimerizing molecule AP1903. A monoclonal cell line was generated (cLSM01-C5) expressing all three components of CCR6-based LIDAR by stable PiggyBac integrations. […] Another functional output was then tested, tobacco etch virus (TEV) protease, given our expertise (14) and its broad use (15) in synthetic circuits. A LIDAR-produced TEV protease rescues a fluorescent protein linked via a TEV protease cleavage site to a degron (FIG. 9G). Its dose response curve resembles that of the corresponding LIDAR that directly outputs EGFP (FIG. 9H and FIG. 13F). […] This indicates the potential for LIDAR to be implemented in more complex circuits (16).

[2] = test system: AVPR-LIDAR and CX3CR1-LIDAR; assay: orthogonal ChaCha-like LIDAR receptors (AVPR-LIDAR and CX3CR1-LIDAR) in the same cell; assay type: cell-based, human; conditions: MCP/MS2 reporter outputs EGFP, PCP/PP7 reporter outputs mTagBFP; FIG. 10K
Method: To maintain a fast design-build-test cycle, unless specified, all prototyping experiments were performed by transiently co-transfecting receptor-encoding DNA plasmids into human embryonic kidney (HEK) 293 cells.
To program more complex multi-cellular behaviors, as well as to integrate multiple inputs for targeted cell therapies, it is often required to have receptors that process orthogonal signals in the same cell. In our most commonly used configuration (Tango-like LIDAR), the β-arrestin2-RBP fusion protein is recruited to all GPCRs without discrimination. This means that with two different GPCR-LIDAR receptors (e.g., AVPR-based LIDAR and CX3CR1-based LIDAR) the system would only be able to produce one output, triggered by either ligand. In the inverted version, the ADAR2dd and the RBP are interchanged to obtain the GPCR-RBP and β-arrestin2-ADAR2dd fusion proteins, analogous to TANGO vs. ChaCha receptors (25) (FIG. 10J). Because a separate RBP is needed for each receptor. MCP was used for a reporter RNA harboring MS2 loops and outputting EGFP and PP7 bacteriophage coat protein (PCP) for a reporter RNA harboring PP7 loops and outputting mTagBFP.

[3] = biological target: T1, CCR6-based LIDAR (Homo sapiens, UniProt P51684); assay: CCR6-based LIDAR sensing of secreted or membrane-bound CCL20 from sender cells; assay type: cell-based; conditions: conditioned media from CCL20-secreting cells or co-culture with cells displaying CCL20; FIG. 10A-D
T1 construct: ADAR2dd (deaminase domain of ADAR2); expressed in transfected cells; host or cells: HEK293 (receiver cells)
T1 sequence (P51684 whole entry, the tested form may be a part): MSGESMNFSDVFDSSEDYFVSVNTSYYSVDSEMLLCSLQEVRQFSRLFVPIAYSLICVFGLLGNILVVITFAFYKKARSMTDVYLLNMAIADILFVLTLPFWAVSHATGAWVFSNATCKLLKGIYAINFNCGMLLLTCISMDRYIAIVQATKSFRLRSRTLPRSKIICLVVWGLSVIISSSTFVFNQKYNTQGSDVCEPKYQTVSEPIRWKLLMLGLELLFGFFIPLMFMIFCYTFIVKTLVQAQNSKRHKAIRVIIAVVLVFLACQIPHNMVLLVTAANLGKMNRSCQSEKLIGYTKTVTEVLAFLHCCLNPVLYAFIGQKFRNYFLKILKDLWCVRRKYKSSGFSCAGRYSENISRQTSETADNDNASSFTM
T1 sequence (P32121 whole entry partner, the tested form may be a part): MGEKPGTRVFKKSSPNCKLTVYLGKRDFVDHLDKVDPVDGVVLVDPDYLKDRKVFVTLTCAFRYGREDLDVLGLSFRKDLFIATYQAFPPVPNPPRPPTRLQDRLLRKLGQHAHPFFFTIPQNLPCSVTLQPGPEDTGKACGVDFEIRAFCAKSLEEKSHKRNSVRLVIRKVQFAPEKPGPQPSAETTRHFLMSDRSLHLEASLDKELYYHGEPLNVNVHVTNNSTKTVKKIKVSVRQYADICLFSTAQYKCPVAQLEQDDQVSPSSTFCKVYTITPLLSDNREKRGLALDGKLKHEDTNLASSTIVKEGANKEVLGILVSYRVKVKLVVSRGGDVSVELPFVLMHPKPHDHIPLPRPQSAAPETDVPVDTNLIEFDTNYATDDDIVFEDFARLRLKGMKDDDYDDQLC
Excerpt: Inspired by examples from synNotch (19, 20) and given the advantage that LIDAR could potentially sense both membrane-bound and soluble ligands. LIDAR was used to drive cell-cell interactions to ultimately program complex multicellular behaviors (21-23). CCR6-based LIDAR senses its ligand, CCL20 (FIG. 10A-D), when the receiver cells are either exposed to conditioned media from CCL20-secreting cells (FIG. 10A, B) or co-cultured with cells displaying CCL20 on their surface (FIG. 10C, D). […] Receiver cells surrounding cells that produce secreted ligands were plated (FIG. 10E), a response gradient was observed going from the sender cells outwards (FIG. 10F). In contrast, when the receiver cells with sender cells producing a membrane-bound ligand were tested, the response pattern is limited to the sender-receiver interface (FIG. 10G, H). The images were quantified to extract the LIDAR output intensity profiles in response to membrane-bound and secreted ligands.

[4] = biological target: GPCR fused to MCP (inverted GPCR LIDAR design; GPCRs not named); assay: cell-based or functional assay

Molecule	cell death [1]	output produced by each ligand in the same cell [2]	other results
CC[C@H](C(=O)N1CCCC[C@H]1C(=O)O[C@H](CCc1ccc(OC)c(OC)c1)c1cccc(OCC(=O)NCCNC(=O)COc2cccc([C@@H](CCc3ccc(OC)c(OC)c3)OC(=O)[C@@H]3CCCCN3C(=O)[C@@H](CC)c3cc(OC)c(OC)c(OC)c3)c2)c1)c1cc(OC)c(OC)c(OC)c1 [AP1903, reference compound]	Substantial cell death	–	–
NC(=O)CC[C@@H]1NC(=O)[C@H](Cc2ccccc2)NC(=O)[C@H](Cc2ccc(O)cc2)NC(=O)[C@@H](N)CSSC[C@@H](C(=O)N2CCC[C@H]2C(=O)N[C@@H](CCCN=C(N)N)C(=O)NCC(N)=O)NC(=O)[C@H](CC(N)=O)NC1=O [AVP, Arginine vasopressin, reference compound]	–	EGFP exclusively	–
CCL20: chemokine, GPCR ligand of CCR6	Substantial cell death	–	ligand sensing by receiver cells [3]: senses
β-arrestin2-ADAR2dd (inverted / ChaCha-like LIDAR) (from UniProt P32121 1-409; P78563 299-701)	–	–	fold activation of inverted GPCR LIDAR [4]: < 17 ×
B1	–	mTagBFP exclusively	–
